Results from US7521590B2, “Phospholipase C β1 (PLCβ1) knockout mice as a model system for testing schizophrenia drugs” (Korea Institute of Science and Technology, priority 2006, dated 2009).

Assays:
PLCβ1−/− mice = assay: Prepulse inhibition (PPI) of acoustic startle response in PLCβ1−/− mice; assay type: in vivo, mouse; conditions: 0.2 mg/kg i.p. 45 minutes before the test, prepulse 74, 82, 90 dB, p<0.05 vs vehicle
Method: (§1) PPI tests were carried out with 26 responder mice 13˜15 weeks old by using a single acoustic startle chamber (Coulbourn Instruments, USA), one mouse at a time. The startle reflex was triggered by a pulse stimulus in the form of a 40 msec, 120 dB burst of white noise (SS). Inhibition of the SS-elicited startle response was achieved using a 20 msec-prepulse stimulus of various intensities (74, 82, and 90 dB white noise) that preceded SS by 100 msec.
(§2) The test was composed of a series of 7 blocks, each of which was a “semi-random” mixture of 8 different trial types (no stimulus, SS only, three PP only, three PP plus SS), separated by 10 to 15-second intertrial intervals. The percent prepulse inhibition (%PPI) was calculated as [1−(response to PP-SS coupling/response to SS only)]×100.
(§3) Haloperidol (0.2 mg/kg body weight) was intraperitonealy (i.p.) administered 45 minutes before the test, using 0.5% dimethylsulfoxide (DMSO) in saline (0.9% NaCl) as the vehicle. Haloperidol (Tocris Cookson, UK) stock solution was prepared in DMSO and stored at […] for less than a month.

wild-type mice = assay: Prepulse inhibition (PPI) of acoustic startle response in wild-type mice; assay type: in vivo, mouse; conditions: 0.2 mg/kg i.p. 45 minutes before the test, vs vehicle
Method: as §1, §2, §3

SMILES: O=C(CCCN1CCC(O)(c2ccc(Cl)cc2)CC1)c1ccc(F)cc1 [haloperidol, Haloperidol]
- effect on the PPI deficit (%PPI) (PLCβ1−/− mice): completely reversed
- effect on the PPI (%PPI) (wild-type mice): not effective
